Bridge positions count the residues as written; N and C are the ends. Ends that are not written are not given here.
What was measured:
AMY1(a) receptor = target: T1, AMY1(a) receptor (Homo sapiens, UniProt O60894+P30988); assay: cAMP production in Cos 7 cells via the AMY1(a) receptor; format: cell-based
T1 construct: HA; expressed in transfected cells; host or cells: Cos 7
Procedure: (§1) SK-N-MC cells were grown in DMEM/F12 medium supplemented with 10% fetal calf serum as described previously (Poyner et al., [1998]). […] Production of cAMP in SK-N-MC cells for all analogues except [[…]]-hαCGRP was by a radioreceptor assay, as described previously (Poyner et al., [1998]). […] For [[…]]-hαCGRP, a different clone of SK-N-MC cells was used and cAMP production was measured via AlphaScreen (Perkin Elmer, Wellesley, MA, USA), as described previously ([…] et al., [2010]). This assay was also used to investigate the action of all derivatives at the AMY1(a) receptor and other experiments using Cos 7 cells. […] GraphPad Prism 5.00 or 6.00 (GraphPad Software Inc., San Diego, CA, USA) was used for data fitting. Concentration-response curves were fitted to a sigmoidal function with Hill slope constrained to unity to obtain pEC50 and maximum responses (Emax) values. Displacement curves were analysed to obtain pIC50 values. Schild plots were fitted by linear regression to obtain slope and intercepts. pEC50 and pIC50 values were compared with that of human αCGRP using Dunnett's test with either a normal or repeated measures one-way ANOVA, as appropriate.

CGRP receptor [1] = target: T2, CGRP receptor (Homo sapiens, UniProt O60894+Q16602); assay: Displacement of 125I-CGRP binding to SK-N-MC cell membranes; parameters: relative expression levels of the receptors (endogenous vs. overexpressed); endogenous in cells; host or cells: SK-N-MC cells (ECACC clone; ATCC clone for [Cys5]-CGRP); settings: 125I-CGRP binding, SK-N-MC membranes; listed as [Cys^5]-CGRP
T2 sequence (Q16602 23-461): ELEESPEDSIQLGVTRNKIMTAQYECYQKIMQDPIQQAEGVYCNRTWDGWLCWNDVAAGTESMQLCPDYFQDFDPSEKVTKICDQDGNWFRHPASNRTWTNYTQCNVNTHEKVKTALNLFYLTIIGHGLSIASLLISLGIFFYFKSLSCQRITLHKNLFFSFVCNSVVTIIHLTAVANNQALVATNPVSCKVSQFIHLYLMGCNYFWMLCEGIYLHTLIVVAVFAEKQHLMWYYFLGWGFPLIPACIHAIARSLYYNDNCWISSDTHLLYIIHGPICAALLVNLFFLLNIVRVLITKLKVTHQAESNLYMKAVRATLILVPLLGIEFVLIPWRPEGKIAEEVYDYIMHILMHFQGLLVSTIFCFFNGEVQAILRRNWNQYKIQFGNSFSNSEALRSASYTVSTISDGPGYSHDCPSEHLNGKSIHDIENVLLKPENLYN
T2 sequence (O60894 27-148): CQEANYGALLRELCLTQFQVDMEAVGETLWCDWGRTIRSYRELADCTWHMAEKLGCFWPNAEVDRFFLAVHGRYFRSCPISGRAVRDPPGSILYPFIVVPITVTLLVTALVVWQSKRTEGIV
Procedure: (§2) GraphPad Prism 5.00 or 6.00 (GraphPad Software Inc., San Diego, CA, USA) was used for data fitting. Concentration–response curves were fitted to a sigmoidal function with Hill slope constrained to unity to obtain pEC50 and maximum responses (Emax) values. Displacement curves were analysed to obtain pIC50 values. Schild plots were fitted by linear regression to obtain slope and intercepts. pEC50 and pIC50 values were compared with that of human αCGRP using Dunnett's test with either a normal or repeated measures one-way ANOVA, as appropriate.

CGRP receptor [2] = target: T2, CGRP receptor; assay: Antagonism of CGRP-stimulated cAMP production in SK-N-MC cells; format: cell-based; parameters: relative expression levels of the receptors (endogenous vs. overexpressed); endogenous in cells; host or cells: SK-N-MC cells (ECACC clone; ATCC clone for [Cys5]-CGRP)
Procedure: (§3) Production of cAMP in SK-N-MC cells for all analogues except [[…]]-hαCGRP was by a radioreceptor assay, as described previously (Poyner et al., [1998]). […] For [[…]]-hαCGRP, a different clone of SK-N-MC cells was used and cAMP production was measured via AlphaScreen (Perkin Elmer, Wellesley, MA, USA), as described previously ([…] et al., [2010]). This assay was also used to investigate the action of all derivatives at the AMY1(a) receptor and other experiments using Cos 7 cells. […] GraphPad Prism 5.00 or 6.00 (GraphPad Software Inc., San Diego, CA, USA) was used for data fitting. Concentration-response curves were fitted to a sigmoidal function with Hill slope constrained to unity to obtain pEC50 and maximum responses (Emax) values. Displacement curves were analysed to obtain pIC50 values. Schild plots were fitted by linear regression to obtain slope and intercepts. pEC50 and pIC50 values were compared with that of human αCGRP using Dunnett's test with either a normal or repeated measures one-way ANOVA, as appropriate.

CGRP receptor [3] = target: T2, CGRP receptor; assay: cAMP production in Cos 7 cells transfected with CLR and RAMP1; format: cell-based; parameters: relative expression levels of the receptors (endogenous vs. overexpressed); endogenous in cells; host or cells: SK-N-MC cells (ECACC clone; ATCC clone for [Cys5]-CGRP); settings: read-out: Emax, % of that of CGRP, AlphaScreen
Procedure: as §1

CGRP receptor [4] = target: T2, CGRP receptor; assay: β-arrestin 2 translocation in CHO-K1 cells (PathHunter eXpress); format: cell-based; parameters: host or cells: CHO-K1 (PathHunter eXpress β-arrestin kit)
Procedure: as §2

CGRP receptor [5] = target: T2, CGRP receptor; assay: cAMP production in SK-N-MC cells; format: cell-based; parameters: relative expression levels of the receptors (endogenous vs. overexpressed); endogenous in cells; host or cells: SK-N-MC cells (ECACC clone; ATCC clone for [Cys5]-CGRP)
Procedure: as §3

[6] = test system: porcine iris ciliary body; settings: ref Heino et al., 1998; cited from earlier work
Source text: Similarly, substitution of Thr-6 ...

[7] = AlphaScreen, means ± SEM, n = 3–6, listed as [Cys^6]
[8] = 2 h stimulation, means ± SEM, n = 3, listed as [Cys^6]
[9] = radioreceptor assay, approx. 10 min, means ± SEM, n = 3–6, listed as [Cys^6]

T1 sequence (P30988 25-474): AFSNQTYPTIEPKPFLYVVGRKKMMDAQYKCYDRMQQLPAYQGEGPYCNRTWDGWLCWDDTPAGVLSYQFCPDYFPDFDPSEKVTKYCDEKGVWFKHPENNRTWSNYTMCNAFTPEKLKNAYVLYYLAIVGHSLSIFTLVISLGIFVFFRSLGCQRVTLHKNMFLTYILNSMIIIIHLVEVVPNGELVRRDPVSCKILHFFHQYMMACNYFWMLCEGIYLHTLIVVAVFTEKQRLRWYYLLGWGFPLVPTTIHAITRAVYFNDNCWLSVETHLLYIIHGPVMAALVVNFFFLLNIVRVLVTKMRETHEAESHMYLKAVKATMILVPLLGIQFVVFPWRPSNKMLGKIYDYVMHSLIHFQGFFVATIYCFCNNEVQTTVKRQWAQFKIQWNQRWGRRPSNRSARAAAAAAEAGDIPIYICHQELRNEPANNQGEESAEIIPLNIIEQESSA
T1 sequence (O60894 27-148): as the sequence (O60894 27-148) above

Compound | fold less potent than CGRP, cAMP at AMY1(a) receptor (AMY1(a) receptor) [fold] | stimulation of cAMP production at AMY1(a) receptor (AMY1(a) receptor) | AMY1(a) receptor-stimulated cAMP Emax (% CGRP) CGRP analogue (AMY1(a) receptor; [7]) | AMY1(a) receptor-stimulated cAMP pEC50 CGRP analogue (AMY1(a) receptor; [7]) | decrease in affinity compared with CGRP (CGRP receptor [1]) [fold] | slope of Schild plot (CGRP receptor [2]; listed as [Cys^5]-CGRP) | slope of Schild plot (CGRP receptor [2]; listed as [Cys^6]-CGRP) | Emax (CGRP receptor [3]) [%] | β-Arrestin (CHO-K1) Emax (% CGRP) CGRP analogue (CGRP receptor [4]; [8]) | β-Arrestin (CHO-K1) pEC50 CGRP analogue (CGRP receptor [4]; [8]) | Emax (CGRP receptor [4]; CHO-K1, CHO-K1 cells, compared with CGRP, read-out: reduction of Emax, β-arrestin 2 translocation) [%] | decrease in potency for β-arrestin 2 translocation compared with CGRP (CGRP receptor [4]; CHO-K1 cells) | stimulation of β-arrestin 2 translocation (CGRP receptor [4]; CHO-K1 cells, [Asp6] and [Lys6] at concentrations of up to 1 μM) | decrease in potency on cAMP compared with CGRP (CGRP receptor [5]; SK-N-MC cells) | stimulation of cAMP production (CGRP receptor [5]; SK-N-MC cells, [Asp6] and [Lys6] at concentrations of up to 10 μM) | cAMP (SK-N-MC) Emax (% CGRP) CGRP analogue (CGRP receptor [5]; [9]) | cAMP (SK-N-MC) pEC50 CGRP analogue (CGRP receptor [5]; [9]) | stimulation of cAMP production [6]
CC(C)C[C@H](NC(=O)CNC(=O)[C@H](C)NC(=O)[C@H](CC(C)C)NC(=O)[C@H](CCCNC(=N)N)NC(=O)[C@H](Cc1c[nH]cn1)NC(=O)[C@@H](NC(=O)[C@@H](NC(=O)[C@@H]1CSSC[C@H](NC(=O)[C@@H](N)CS)C(=O)N[C@@H](CC(=O)O)C(=O)N[C@@H]([C@@H](C)O)C(=O)N[C@@H](C)C(=O)N[C@@H]([C@@H](C)O)C(=O)N1)C(C)C)[C@@H](C)O)C(=O)N[C@@H](CC(C)C)C(=O)N[C@@H](CO)C(=O)N[C@@H](CCCNC(=N)N)C(=O)N[C@@H](CO)C(=O)NCC(=O)NCC(=O)N[C@H](C(=O)N[C@H](C(=O)N[C@@H](CCCCN)C(=O)N[C@@H](CC(N)=O)C(=O)N[C@@H](CC(N)=O)C(=O)N[C@@H](Cc1ccccc1)C(=O)N[C@H](C(=O)N1CCC[C@H]1C(=O)N[C@H](C(=O)N[C@@H](CC(N)=O)C(=O)N[C@H](C(=O)NCC(=O)N[C@@H](CO)C(=O)N[C@@H](CCCCN)C(=O)N[C@@H](C)C(=O)N[C@@H](Cc1ccccc1)C(N)=O)C(C)C)[C@@H](C)O)C(C)C)C(C)C)C(C)C [[Cys^1]] | 75 | no consistent stimulations | Undetectable | Undetectable | > 270 | 1.33 ± 0.30 | 0.98 ± 0.20 | 90 ± 8 | Undetectable | Undetectable | 45 | ninefold | unable to stimulate | over 100 fold | unable to stimulate | Undetectable | Undetectable | 
[Val^6]-CGRP: CGRP analogue substituted at position 6, from Heino et al., 1998 (ACDTAVCVTHRLAGLLSRSGGVVKNNFVPTNVGSKAF-NH2; disulfide 2-7; ends not checked; UniProt P06881 83-119, looked up, variant T6V) |  |  |  |  |  |  |  |  |  |  |  |  |  |  |  |  |  | inactive
